Like-named read-outs stand apart in the source and are kept apart here. Marks after values point to notes of the source that are not given here.
Assays:
[1] = tested on: Hepatitis B Virus; assay: Hepatitis B virus secretion by chronically HBV secreting HepG2.2.15 cells (immunoprecipitated virion DNA, PCR); type: cell-based; settings: for [] for 90% HBV secretion inhibition: based upon duplicate PCR results; for Relative amount of HBV secreted As A % of Control: 3 days, preS1 immunoprecipitation, PCR
Procedure: (§1) The anti-hepatitis B virus activity and effect on cell viability of a number of different N-substituted-1,5-dideoxy-1,5-imino-D-glucitol compounds were assessed using an in vitro assay employing chronically hepatitis B virus secreting HepG2.2.15 cells. The method employed was essentially that described in Block et al. (1994) Proc. Natl. Acad. Sci. USA 91:2235-2239.

[2] = tested on: HepG2.2.15 Cells; assay: MTT-based colorimetric assay of cell viability
Procedure: as §1

[3] = tested on: HepG2.2.15 Cells; assay: Viability of HepG2.2.15 cells, trypan blue exclusion; type: cell-based; settings: 3 days, cells excluding trypan blue
Procedure: as §1

[4] = tested on: HBV; assay: Cell culture experiments with N-nonyl-DNJ: total HBV DNA and immune precipitated DNA; type: cell-based, hepatitis B virus
From the text: (§2) There are two measures of drug efficacy: reduction in total HBV DNA (measured by quantitative PCR), and reduction in HBV DNA from capsids with intact surface glycoproteins, which is the active form of the virus (measured by an ELISA-like immune precipitation assay followed by quantitative PCR).

[5] = tested on: woodchuck hepatitis virus (WHV); assay: Woodchuck model, N-nonyl-DNJ alone, BID oral dosing; type: in vivo
From the text: In order to evaluate the efficacy of N-nonyl-DNJ in combination with 3TC (or other nucleoside or nucleotide analogs) against Hepatitis B virus in a woodchuck animal model, an monotherapy experiment using N-nonyl-DNJ alone was first conducted. This was necessary to determine if N-nonyl-DNJ has any anti-HBV effect in the woodchuck and, if N-nonyl-DNJ has a beneficial effect, to design a combination study based on the dose-response relationship of this drug alone.
Therefore, five groups of four animals each (all groups had both sexes, all but the control had two of each sex) were assigned to 0, 12.5, 25, 50, and 100 mg/kg/day with BID oral dosing. These were lab-reared wild animals. All animals were infected with woodchuck hepatitis virus (WHV) as neonates, and had been tested positive on serological tests for WHV surface antigen. Blood samples were drawn one week prior to dosing (−1 week), immediately before dosing (0 weeks), weekly during dosing (1, 2, 3, and 4 weeks), and after the end of dosing (5, 6, 8, and 10 weeks).
as §2
Before models are fitted to the data, a log transform was applied because: 1) the variation in IPDNA increases with increasing IPDNA values; the log transformation gives values with a nearly constant variation, and 2) it is expected that drug effects will appear as a constant multiplier of the IPDNA level. Because there are zero values of IPDNA, a small value (about ½ of the smallest non-zero value) was added to all values before the log transform.
Two approaches were used to model the changes in slope to week with dose of N-nonyl-DNJ: a linear modeling approach and a nonlinear model. Both approaches assume that the (linear) rate of change of the Log(IPDNA) measure over the dosing period is the “right” measure to reflect the effect of the drug on the virus. Both approaches are fit in stages, and the first stage is common to both approaches. First, a simple straight line regression model is fit using weeks 0-4 to predict log(IPDNA_+—10) separately for each animal by run combination. In the second stage, the response variable is the slope fitted in the first stage.
For the linear approach, a model is fit with slope to week as the response where run is considered a block, dose has a significant effect (almost all of this effect is due to a slope to dose), and the relevant error for testing the effect of dose is the variation among animals treated alike (after the adjustment for the runs as blocks). This is similar to using the calibration data within each run to first adjust each run's data to a common virus DNA concentration; the difference is that here the data from the woodchucks are used for the run adjustment rather than only the calibration data.
For the nonlinear approach, a four parameter logistic model is fit with the slope to week as the response and the dose as the predictor. Again, run is considered a block, but because no run has all weeks, it is not possible to fully reflect the blocking in the nonlinear approach. […]

In the case of `CCCCN1C[C@H](O)[C@@H](O)[C@H](O)[C@H]1CO` [NBDNJ, N-(n-butyl-)-1,5-dideoxy-1,5-imino-D-glucitol], the “[] for 90% HBV secretion inhibition” value [1] is reported as 0.5-1.0* microgs per ml, the “Relative amount of HBV secreted As A % of Control” value ([1]; concentration [200]) is reported as 37.0 +/− 13 (n = 15) % and the “Relative amount of HBV secreted As A % of Control” value ([1]; concentration [200], listed as 1) is reported as 85.0 +/− 5 (n = 8) %. For the same compound, the “Relative amount of HBV secreted As A % of Control” value ([1]; concentration [1000]) was 3.2 +/− 5 (n = 15) %, the “Relative amount of HBV secreted As A % of Control” value ([1]; concentration [1000], listed as 1) was 35.0 +/− 6 (n = 8) % and the “[] for a 50% reduction in MMT” value [2] was 100-200 microgs per ml.

For “N-[2-(4-Trifluoromethylphenyl)-ethyl]-glucamine [Example 7]”, the “[] for 90% HBV secretion inhibition” value [1] was >200** microgs per ml and the “[] for a 50% reduction in MMT” value ([2]; HepG2.2.15 cells) was >200 microgs per ml.

In the case of `CCCCN1C[C@H](OC(C)=O)[C@@H](OC(C)=O)[C@H](OC(C)=O)[C@H]1COC(C)=O` [Example 2, 1,5-(Butylimino)-1,5-dideoxy-D-glucitol, Tetraacetate], the “[] for 90% HBV secretion inhibition” value [1] is reported as >200*s* microgs per ml, the “Relative amount of HBV secreted As A % of Control” value ([1]; concentration [200]) is reported as 107.0 +/− 12 (n = 3) % and the “Relative amount of HBV secreted As A % of Control” value ([1]; concentration [1000]) is reported as 38.0 +/− 15 (n = 3) %. For the same compound, the “% Viable +/− 1 S.D.” value ([3]; concentration [200]) was 90 +/− 6 (n = 4) % and the “% Viable +/− 1 S.D.” value ([3]; concentration [1000]) was 89 +/− 4 (n = 4) %.

With `CCCCCCCCCN1C[C@H](O)[C@@H](O)[C@H](O)[C@H]1CO` [N-nonyl-DNJ, N-(n-nonyl)-1,5-dideoxy-1,5-imino-D-glucitol] the “effect on the immune precipitated DNA (IPDNA)” value [4] was “marked effect”, the “effect on total HBV DNA” value [4] was “little or no effect” and the “effect on total HBV DNA measurements” value ([5]; all dose levels, pre-dose and dosed portions, quantitative PCR) was “no effect”. The “average minimum slope observed” value ([5]; decrease of IPDNA, dosing weeks 0-4) was 0.31 fewer Log(IPDNA g/mL)/week, the “decrease of IPDNA at average minimum slope” value ([5]; dosing weeks 0-4) was “about 25 %/week” and the “slope of IPDNA levels over the dosing period due to dose or plasma level” value ([5]; weeks 0-4, straight line fitted per animal) was “significant difference in the slope”. For the same compound, the “approximate effective monotherapy dose” value ([5]; woodchucks) was “about 16 mg/kg/day”.

Reference: patent US6747149B2, “Glucamine salts for treating hepatitis virus infections” (G. D. Searle & Co., priority 1999, dated 2004)
